# Earlier results in article PMC6968775, “Assessment of contribution of BCRP to intestinal absorption of various drugs using portal‐systemic blood concentration difference model in mice” (Pharmacology Research & Perspectives, 2020).
# Conditions: human; cited from earlier work
structure (smiles),measurement,value
"O=C(O)c1cn(C2CC2)c2cc(N3CCNCC3)c(F)cc2c1=O [ciprofloxacin, Ciprofloxacin]",oral BA in human,about 70%
